# Data from US20040054130A1, “Insulin potentiating peptides” (priority 2000, published 2004).
# Square brackets hold non-standard residues; d marks the D form. Ends that are not written are not given here. Cha = N[C@@H](CC1CCCCC1)C(=O)O; Orn = NCCC[C@H](N)C(=O)O; βAla = NCCC(=O)O
# Tests used:
# [1] = system: Zucker (fa/fa) rat hemidiaphragm muscle; assay: In vitro glycogen synthesis (glucose incorporation into glycogen) in hemidiaphragm muscle with exogenous insulin; assay type: cell-based; design: key to Activity: insulin-potentiating: improved activity compared to insulin alone; inactive: equal activity compared to insulin alone; insulin antagonist: reduced activity compared to insulin alone; *-**: increasing insulin-potentiating activity; details: for insulin-potentiating activity on in vitro glycogen synthesis (in words): with 1 mU/ml exogenous insulin
# Experimental: In vitro insulin-potentiating effects of the synthetic peptide analogues were assessed by measuring the rates of exogenous glucose incorporation into glycogen in rat hemidiaphragms (Lim et al, 1992). Hemidiaphragms from overnight-fasted Zucker fatty(fa/fa) female rats were dissected, and divided into segments of approximate 35-50 mg each. Tissues from the same rat were used for all groups. The tissue was incubated in 2 ml of Krebs-Ringer bicarbonate (KRB) buffer (pH 7.4) containing [^14C]glucose (5.5 mM, final specific activity 0.05 mCi/mmol) under an atmosphere of 95% 02-5% CO2 at 37° C. for 1.5 hr. After incubation, tissues were removed, washed with cold buffer and blotted. Tissues were digested, the muscle glycogen was precipitated and the ^14C-radioactivity was counted in a Wallac 1410 liquid scintillation counter. The biological activity of peptide analogues was measured as the rate of mmol glucose incorporation into muscle glycogen/g tissue/hr.
# The sensitivity of hemidiaphragm muscle tissue to insulin (0.1-100 mU/ml) on glycogen synthesis was first analyzed. The dose response curves for peptide analogues on the insulin-potentiating effect to glycogen synthesis were then measured using cumulative increasing concentrations (10^−3 10 μmol/ml) of peptides in the presence of insulin (1 mU/ml). The biological activity of each peptide analogue was measured as the rate of glucose incorporation into muscle glycogen (μmol/g tissue/hr), and represented by the mean±SEM from eight determinations.
# To determine the insulin-potentiating effect of the peptide analogues, the rates of incorporation of glucose into muscle glycogen were measured. The rates of glycogen synthesis (μmol/g tissue/hr) were 0.52±0.05, 0.60±0.04, 1.27±0.06 and 1.52±0.07 inresponse to 0.33, 1, 3.33 and 10 mU/ml insulin respectively, as shown in FIG. 1.
# The insulin-potentiating effect of the peptide analogues was then observed by studying their dose response. curves for glucose incorporation into glycogen in the presence of 1 mU/ml exogenous insulin. The effects of peptides 1, 3, 4, 6, 7, 8 and 10 were evident at doses higher than 0.01 μmol/ml, and continued to increase with increasing peptide concentration to 1 μmol/ml, as shown in FIGS. 2A and 2B.
# The activity of each analogue was assessed by in vitro measurement of glycogen synthesis in muscle, as described above.
# [2] = system: normal male Wistar rats; assay: Intravenous insulin tolerance test (IVITT); assay type: in vivo, rat; details: 5 μmol/kg i.v.; for Reduction in Blood Glucose: 0.1 U insulin/kg
# Experimental: IVITTs (0.1 U insulin/kg body weight) were performed on overnight-fasted Wistar male rats as previously described (Lim et al, 1992). Blood samples were taken for glucose estimation at 15, 30, 45, 60 min after the commencement of the tests. Six animals in each group were used.
# IVITTs were performed on normal male Wistar rats after a single intravenous (i.v.) injection of the hGH peptide analogues at a dose of 5 μmol/kg body weight. The insulin-potentiating effects of peptides 6, 7, 8 and 10 on decreasing blood glucose levels of treated animals became significant since 30 min after the commencement of the test. Bioactivity was retained when the Arg^8 or Phe^10 residue of Asu^11-hGH(6-13) peptide was substituted with Lys or Tyr respectively (1.92±0.17 or 1.62±0.18 vs. 1.65±0.12 mmol/L at 45 min), as shown in Table 3. However, no insulin-potentiating effect was observed when either Arg^8 or Phe^10 was substituted by Gly (0.92±0.08 or 1.08±0.08 mmol/L respectively vs. 1.00±0.10 mmol/L of control at 45 min). Asu^11-hGH(8-13) also elicited this insulin-potentiating effect, but with lower potency.
# [3] = Table 5, compared to insulin alone
# [4] = Table 6 (corrected), summary of Table 5
Substance,"Activity [1, 3]","Activity [1, 4]",further results
Ala-Gly-Phe-Phe (AGFF-NH2) [Peptide 12],inactive,–,–
Arg-Ala-Phe-Phe-NH2 (RAFF-NH2) [Peptide 13],inactive,inactive,–
Arg-D-Ala-Phe-Tyr-NH2 (R[dA]FY-NH2; N-terminus assumed; SMILES C[C@@H](NC(=O)[C@@H](N)CCCNC(=N)N)C(=O)N[C@@H](Cc1ccccc1)C(=O)N[C@@H](Cc1ccc(O)cc1)C(N)=O) [Peptide 22],–,active,–
"Arg-D-Ala-Phe-Tyr-me-NH2 (R[dA]FY-NH2; also: 'me' (methyl) after Tyr, site not settled) [Peptide 23]",–,active,–
Arg-D-Ala-Tyr-Phe-NH2 (R[dA]YF-NH2; N-terminus assumed; SMILES C[C@@H](NC(=O)[C@@H](N)CCCNC(=N)N)C(=O)N[C@@H](Cc1ccc(O)cc1)C(=O)N[C@@H](Cc1ccccc1)C(N)=O) [Peptide 24],–,active,–
Arg-Gly-Ala-Phe-NH2 (RGAF-NH2) [Peptide 14],inactive,inactive,–
Arg-Gly-Phe-Ala-NH2 (RGFA-NH2) [Peptide 15],inactive,inactive,–
Arg-Gly-Phe-Tyr-NH2 (RGFY-NH2) [Peptide 21],inactive,inactive,–
Arg-Gly-Tyr-Phe-NH2 (RGYF-NH2) [Peptide 19],–,active,–
Arg-Leu-Phe-Phe-NH2 (RLFF-NH2) [Peptide 4],–,active,–
Arg-β-Ala-Phe-Phe (R[βAla]FF; not fully specified (C-terminus); printed as Arg-β-Ala-Phe-Phe) [Peptide 18],–,active,–
Leu-Ser-Arg-Leu-Gly-Asu-Asn-Ala (LSRLGDNA-NH2; not fully specified; printed as Leu-Ser-Arg-Leu-Gly-Asu-Asn-Ala) [Peptide 11],inactive,–,Reduction in Blood Glucose ([2]; 15 min): 0.68 ± 0.05 mmol/L; Reduction in Blood Glucose ([2]; 30 min): 0.96 ± 0.06 mmol/L; Reduction in Blood Glucose ([2]; 45 min): 1.08 ± 0.08 mmol/L; Reduction in Blood Glucose ([2]; 60 min): 1.12 ± 0.06 mmol/L
Leu-Ser-Arg-Leu-Tyr-Asu-Asn-Ala (LSRLYDNA-NH2; not fully specified; printed as Leu-Ser-Arg-Leu-Tyr-Asu-Asn-Ala) [Peptide 10],–,–,insulin-potentiating effect on decreasing blood glucose in IVITT (in words) ([2]; from 30 min after commencement): significant; Reduction in Blood Glucose ([2]; 15 min): 1.03 ± 0.10 mmol/L; Reduction in Blood Glucose ([2]; 30 min): 1.52 ± 0.12 mmol/L; Reduction in Blood Glucose ([2]; 45 min): 1.62 ± 0.18 mmol/L; Reduction in Blood Glucose ([2]; 60 min): 1.60 ± 0.34 mmol/L
Leu-Ser-Gly-Leu-Phe-Asu-Asn-Ala (LSGLFDNA-NH2; not fully specified; printed as Leu-Ser-Gly-Leu-Phe-Asu-Asn-Ala) [Peptide 9],inactive,–,Reduction in Blood Glucose ([2]; 15 min): 0.87 ± 0.12 mmol/L; Reduction in Blood Glucose ([2]; 30 min): 0.80 ± 0.14 mmol/L; Reduction in Blood Glucose ([2]; 45 min): 0.88 ± 0.15 mmol/L; Reduction in Blood Glucose ([2]; 60 min): 0.74 ± 0.16 mmol/L
Lys-Gly-Phe-Phe (KGFF-NH2) [Peptide 16],inactive,–,insulin-potentiating activity on in vitro glycogen synthesis (in words) [1]: loss of activity
RG[Cha]F-NH2 [Peptide 20],–,antagonist,–
[Orn]GFF [Peptide 17],inactive,–,insulin-potentiating activity on in vitro glycogen synthesis (in words) [1]: loss of activity
insulin: exogenous insulin tested alone on hemidiaphragm glycogen synthesis (FIG. 1),–,–,rate of glycogen synthesis ([1]; 0.33 mU/ml insulin alone): 0.52±0.05 μmol/g tissue/hr; rate of glycogen synthesis ([1]; 1 mU/ml insulin alone): 0.60±0.04 μmol/g tissue/hr; rate of glycogen synthesis ([1]; 3.33 mU/ml insulin alone): 1.27±0.06 μmol/g tissue/hr; rate of glycogen synthesis ([1]; 10 mU/ml insulin alone): 1.52±0.07 μmol/g tissue/hr
